In general, EC50 refers to the concentration needed to bring the measured effect to its halfway point.

T1 sequence (O95255 whole entry): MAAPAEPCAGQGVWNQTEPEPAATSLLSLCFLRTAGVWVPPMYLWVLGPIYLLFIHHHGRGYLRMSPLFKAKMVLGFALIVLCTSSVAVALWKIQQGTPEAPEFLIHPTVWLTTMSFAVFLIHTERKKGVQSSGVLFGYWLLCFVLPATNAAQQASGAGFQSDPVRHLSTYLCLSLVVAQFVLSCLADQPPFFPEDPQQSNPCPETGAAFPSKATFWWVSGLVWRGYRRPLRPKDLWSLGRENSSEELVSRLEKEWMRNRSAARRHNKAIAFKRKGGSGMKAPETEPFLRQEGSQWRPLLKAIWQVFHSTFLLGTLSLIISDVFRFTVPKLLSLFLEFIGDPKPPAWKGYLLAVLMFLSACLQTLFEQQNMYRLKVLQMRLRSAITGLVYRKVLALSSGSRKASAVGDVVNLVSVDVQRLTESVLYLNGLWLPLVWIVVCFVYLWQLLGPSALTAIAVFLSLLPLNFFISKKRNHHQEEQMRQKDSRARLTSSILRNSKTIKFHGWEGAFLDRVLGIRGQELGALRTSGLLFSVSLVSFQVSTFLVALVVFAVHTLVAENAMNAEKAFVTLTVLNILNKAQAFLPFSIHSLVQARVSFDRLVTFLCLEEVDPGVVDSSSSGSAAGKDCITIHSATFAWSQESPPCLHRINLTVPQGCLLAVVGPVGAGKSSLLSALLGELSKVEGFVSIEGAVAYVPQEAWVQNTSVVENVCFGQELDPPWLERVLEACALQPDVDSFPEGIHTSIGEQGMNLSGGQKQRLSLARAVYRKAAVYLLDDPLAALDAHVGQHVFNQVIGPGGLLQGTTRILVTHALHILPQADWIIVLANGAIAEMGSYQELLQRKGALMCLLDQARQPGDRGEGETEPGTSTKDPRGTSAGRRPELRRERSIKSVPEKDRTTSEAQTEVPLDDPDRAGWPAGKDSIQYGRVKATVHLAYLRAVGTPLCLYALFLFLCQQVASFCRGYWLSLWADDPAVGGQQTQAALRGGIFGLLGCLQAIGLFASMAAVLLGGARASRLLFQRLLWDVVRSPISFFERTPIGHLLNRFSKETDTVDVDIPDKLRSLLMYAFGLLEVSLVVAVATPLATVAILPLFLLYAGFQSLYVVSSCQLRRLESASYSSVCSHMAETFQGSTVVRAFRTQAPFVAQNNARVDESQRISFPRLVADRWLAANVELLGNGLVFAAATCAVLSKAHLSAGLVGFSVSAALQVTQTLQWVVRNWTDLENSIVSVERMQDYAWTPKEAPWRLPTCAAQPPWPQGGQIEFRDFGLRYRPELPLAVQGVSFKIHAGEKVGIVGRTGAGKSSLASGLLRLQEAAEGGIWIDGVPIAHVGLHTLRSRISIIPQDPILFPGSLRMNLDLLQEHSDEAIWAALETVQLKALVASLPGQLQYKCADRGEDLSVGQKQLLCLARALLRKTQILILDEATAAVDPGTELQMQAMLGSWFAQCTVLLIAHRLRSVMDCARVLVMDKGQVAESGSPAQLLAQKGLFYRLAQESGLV

This assay has as its target T1, ABCC6 WT (Homo sapiens, UniProt O95255).
T1 construct: expressed in transfected cells; host or cells: HEK-293 (transient, Lipofectamine 2000)
In words: ABCC6 WT assay: HiBit protein expression. It counts as cell-based. The conditions noted are these: HEK-293 cells transiently expressing HiBit-tagged ABCC6 WT; 24 h treatment; top concentration 20 μM; read-out: ABCC6 WT EC50, Emax. An excerpt:
To assess activity against ABCC6, compounds were screened in an assay measuring protein expression, using cells transfected with cDNA encoding HiBit-tagged ABCC6 wild-type.
Described here is an assay for measuring the expression of the wild type of human ABCC6 (henceforth referred to as ABCC6 WT) and the use of this assay to measure the efficacy of compounds to increase the expression of ABCC6 WT. The assay was designed to characterize the efficacy and potency of compounds to increase the expression of ABCC6 WT by calculating an Emax and EC50 value. HEK-293 cells transiently expressing ABCC6 WT (HEK-293/ACC6 WT) were used for this assay and were cultured at 37° C. (5% CO2, humidified) in Dulbecco's Modified Eagle Medium (DMEM, Gibco product #11965-092) supplemented with 10% fetal bovine serum. For the assay, HEK-293 cells were transfected with […]/10 cm plate of cDNA encoding HiBit-tagged ABCC6 wild-type using Lipofectamine 2000 (Thermo Fisher, product #11668019). Twenty-four hours after transfection, the HEK-293/ACC6 WT cells were seeded in white/opaque 384-well plates (PerkinElmer, cat. No. 6007688) at 10,000 cells/well in 20 μl growth medium and allowed to settle for 4 hours at 37° C. (5% CO2, humidified). Compound serial dilutions are prepared in growth medium as ten times (10×) the final concentration and using a dilution factor of 2. After the four-hour incubation period, 2.2 μL of the 10× dilutions are transferred to the assay plate.
Dose response curves include ten doses with the top final concentration at 20 μM in 0.15% DMSO. Liquid handling is performed with an Integra mini96-tip head (INTEGRA). After addition of compound treatment, cells are incubated for 24 hours at 37° C. (5% CO2, humidified). After the 24-hour treatment, plates are allowed to equilibrate for 15 minutes at room temperature. Using Integra mini-96, 20 μl of HiBit lytic assay reagent (Promega, product #N3040), which is prepared according to manufacturer's instructions, is added to each well. The plates are rotated at room temperature for 10 minutes and luminescent signal is acquired using an EnVision Multimode Plate Reader (PerkinElmer).
Results are presented below in Table 4 for ABCC6 WT.
For `Cc1cc(C2CC2)nc(C)c1Oc1nc(-c2cncc(C#N)c2)ccc1NS(C)(=O)=O` [Compound I-4], the EC50 was less than 1 µM.

Turning to `Cc1cc(C)c(Oc2nc(-c3cncc(C#N)c3)ccc2NS(C)(=O)=O)c(C)n1` [Compound I-5], the 50% effective concentration (EC50) was less than 1 µM.

As for `Cc1cc(C)c(Oc2nc(-c3ccc(C#N)nc3C)ccc2NS(C)(=O)=O)c(C)c1` [Compound I-6], the 50% effective concentration (EC50) was less than 1 µM.

In the case of `Cc1cc(C)c(Oc2nc(-c3ccc(C#N)nc3)ccc2NS(C)(=O)=O)c(C)n1` [Compound I-7], the EC50 is less than 1 µM.

As to `Cc1cc(C)c(Oc2nc(-c3cnc(C#N)c(Cl)c3)ccc2NS(C)(=O)=O)c(C)n1` [Compound I-8], the half-maximal effective concentration (EC50) was less than 1 µM.

In the case of `Cc1cc(C)c(Oc2nc(-c3cncc(Cl)c3)ncc2NS(C)(=O)=O)c(C)c1` [Compound I-9], the EC50 is less than 1 µM.

Regarding `Cc1cc(C)c(Oc2nc(-c3cncc(C#N)c3)ncc2NS(C)(=O)=O)c(C)c1` [Compound I-10], the EC50 is less than 1 µM.

As for `CNS(=O)(=O)c1ccc(-c2cncc(Cl)c2)nc1Oc1c(C)cc(C)cc1C` [Compound I-95], the concentration for a half-maximal effect (EC50) was less than 1 µM.

As to `Cc1cc(C)c(Oc2nc(-c3cncc(Cl)c3)ccc2S(=O)(=O)N2CCCC2)c(C)c1` [Compound I-96], the half-maximal effective concentration (EC50) lay within 1 to 10 µM.

For the compound `Cc1cc(C)c(Oc2nc(-c3cncc(Cl)c3)ccc2S(=O)(=O)N(C)C)c(C)c1` [Compound I-97], the EC50 was less than 1 µM.

For `Cc1cc(C)c(Oc2nc(-c3cncc(Cl)c3)ccc2S(=O)(=O)NC2CC2)c(C)c1` [Compound I-98], the EC50 is less than 1 µM.

Take `Cc1cc(C)c(Oc2nc(-c3cncc(Cl)c3)ccc2S(=O)(=O)NC(C)(C)C)c(C)c1` [Compound I-99]: the EC50 lay in the range of 1 to 10 µM.

As for `Cc1cc(C)c(Oc2nc(-c3cncc(Cl)c3)ccc2S(N)(=O)=O)c(C)c1` [Compound I-100], the EC50 was less than 1 µM.

Turning to `Cc1cc(C)c(Oc2nc(-c3cccc(Cl)c3)ccc2S(=O)(=O)NC2CCOC2)c(C)c1` (centres unmarked) [Compound I-101], the EC50 was 1 to 10 µM.

For the compound `Cc1cc(C)c(Oc2nc(-c3cccc(Cl)c3)ccc2S(N)(=O)=O)c(C)c1` [Compound I-102], the EC50 lay in the range of 1 to 10 µM.

As to `Cc1cc(C)c(Oc2nc(-c3cncc(Cl)c3)ccc2S(C)(=N)=O)c(C)c1` (centres unmarked) [Compound I-103], the half-maximal effective concentration (EC50) was less than 1 µM.

In the case of `Cc1cc(C)c(Oc2nc(-c3cncc(Cl)c3)ccc2S(C)(=O)=O)c(C)c1` [Compound I-104], the EC50 is 1 to 10 µM.

For the compound `Cc1cc(C(F)(F)F)nc(C2CC2)c1Oc1nc(-c2cncc(C#N)c2)ccc1S(=O)(=O)NC1CC1` [Compound I-133], the EC50 was less than 1 µM.

In the case of `Cc1cc(C(F)F)nc(C2CC2)c1Oc1nc(-c2cncc(C#N)c2)ccc1N(C)S(=O)(=O)C1CC1` [Compound I-134], the 50% effective concentration (EC50) lay in the range of 1 to 10 µM.

In the case of `Cc1cc(C(F)F)nc(C2CC2)c1Oc1nc(-c2cncc(C#N)c2)ccc1N(C)S(C)(=O)=O` [Compound I-135], the concentration for a half-maximal effect (EC50) lay in the range of 1 to 10 µM.

Turning to `Cc1cc(C)c(Oc2nc(-c3cncc(C#N)c3)ccc2N(C)S(=O)(=O)c2cccnc2)c(C2CC2)n1` [Compound I-136], the EC50 lay within 1 to 10 µM.

For the compound `Cc1cc(C(F)F)nc(C2CC2)c1Oc1nc(-c2cncc(C#N)c2)ccc1NS(C)(=O)=O` [Compound I-137], the 50% effective concentration (EC50) was less than 1 µM.

Regarding `CS(=O)(=O)Nc1ccc(-c2cncc(C#N)c2)nc1Oc1c(C2CC2)nc(C(F)(F)F)nc1C1CC1` [Compound I-138], the EC50 was less than 1 µM.

Take `Cc1cc(C(F)(F)F)nc(C2CC2)c1Oc1nc(-c2cncc(C#N)c2)ccc1N(C)S(=O)(=O)C1CC1` [Compound I-139]: the 50% effective concentration (EC50) is less than 1 µM.

On to `Cc1cc(C(F)(F)F)nc(C2CC2)c1Oc1nc(-c2cncc(C#N)c2)ccc1NS(=O)(=O)C1CC1` [Compound I-140], for which the EC50 was less than 1 µM.

Consider `Cc1cc(C(F)(F)F)nc(C2CC2)c1Oc1nc(-c2cncc(C#N)c2)ccc1NS(=O)(=O)C(C)C` [Compound I-141], for which the EC50 was less than 1 µM.

As to `Cc1nc(C(F)(F)F)nc(C2CC2)c1Oc1nc(-c2cncc(C#N)c2)ccc1N(C)S(C)(=O)=O` [Compound I-142], the half-maximal effective concentration (EC50) is not below 25 µM.

`Cc1nc(C2COC2)nc(C2CC2)c1Oc1nc(-c2cncc(C#N)c2)ccc1NS(C)(=O)=O` [Compound I-143]: the concentration for a half-maximal effect (EC50) was less than 1 µM.

Regarding `Cc1nc(C(F)F)nc(C2CC2)c1Oc1nc(-c2cncc(C#N)c2)ccc1NS(C)(=O)=O` [Compound I-144], the EC50 is less than 1 µM.

As to `Cc1nc(C(F)(F)F)nc(C2CC2)c1Oc1nc(-c2cncc(C#N)c2)ccc1NS(C)(=O)=O` [Compound I-145], the concentration giving a half-maximal response (EC50) was less than 1 µM.

Turning to `Cc1cc(C2CC2)nc(C2CC2)c1Oc1nc(-c2cncc(C#N)c2)ccc1N(C)S(C)(=O)=O` [Compound I-146], the concentration giving a half-maximal response (EC50) is not below 25 µM.

`Cc1cc(C)c(Oc2nc(-c3cncc(C#N)c3)ccc2NS(=O)(=O)c2cccnc2)c(C2CC2)n1` [Compound I-147]: the EC50 was less than 1 µM.

Consider `CCS(=O)(=O)N(C)c1ccc(-c2cncc(C#N)c2)nc1Oc1c(C)cc(C(F)(F)F)nc1C1CC1` [Compound I-148], for which the EC50 is less than 1 µM.

For the compound `Cc1nc(C(F)(F)F)nc(C2CC2)c1Oc1nc(-c2cncc(Cl)c2)ccc1N(C)S(C)(=O)=O` [Compound I-149], the concentration for a half-maximal effect (EC50) was less than 25 µM.

Consider `Cc1nc(C2CC2)nc(C2CC2)c1Oc1nc(-c2cncc(C#N)c2)ccc1NS(C)(=O)=O` [Compound I-150], for which the EC50 is less than 1 µM.

As for `Cc1nc(C(F)(F)F)nc(C2CC2)c1Oc1nc(-c2cncc(Cl)c2)ccc1NS(C)(=O)=O` [Compound I-151], the half-maximal effective concentration (EC50) was less than 1 µM.

In the case of `CCS(=O)(=O)Nc1ccc(-c2cncc(C#N)c2)nc1Oc1c(C)cc(C(F)(F)F)nc1C1CC1` [Compound I-152], the EC50 is less than 1 µM.

Take `Cc1cc(C(F)(F)F)nc(C2CC2)c1Oc1nc(-c2cncc(Cl)c2)ccc1N(C)S(C)(=O)=O` [Compound I-153]: the EC50 lay within 1 to 10 µM.

Consider `Cc1nc(C(F)(F)F)cc(C2CC2)c1Oc1nc(-c2cncc(C#N)c2)ccc1N(C)S(C)(=O)=O` [Compound I-154], for which the EC50 was less than 25 µM.

Turning to `Cc1nc(C(F)(F)F)cc(C2CC2)c1Oc1nc(-c2cncc(C#N)c2)ccc1NS(C)(=O)=O` [Compound I-155], the concentration for a half-maximal effect (EC50) was less than 1 µM.

Regarding `Cc1cc(C(F)(F)F)nc(C2CC2)c1Oc1nc(-c2cncc(C#N)c2)ccc1N(C)S(C)(=O)=O` [Compound I-156], the concentration for a half-maximal effect (EC50) is not below 25 µM.

Turning to `Cc1nc(C)c(Oc2nc(-c3cncc(C#N)c3)ccc2N(C)S(C)(=O)=O)c(C2CC2)n1` [Compound I-157], the EC50 was not below 25 µM.

Regarding `Cc1cc(C(F)(F)F)nc(C2CC2)c1Oc1nc(-c2cncc(Cl)c2)ccc1NS(C)(=O)=O` [Compound I-158], the EC50 is less than 1 µM.

Turning to `Cc1nc(N2CC(C#N)C2)nc(C)c1Oc1nc(-c2cncc(C#N)c2)ccc1NS(C)(=O)=O` [Compound I-159], the 50% effective concentration (EC50) is less than 1 µM.

As for `Cc1nc(N2CC3(COC3)C2)nc(C)c1Oc1nc(-c2cncc(C#N)c2)ccc1NS(C)(=O)=O` [Compound I-160], the half-maximal effective concentration (EC50) fell in the range of 1 to 10 µM.

For `Cc1cc(C2CC2)nc(C2CC2)c1Oc1nc(-c2cncc(C#N)c2)ccc1NS(C)(=O)=O` [Compound I-161], the EC50 is less than 1 µM.

On to `Cc1nc(C2CC2)cc(C2CC2)c1Oc1nc(-c2cncc(C#N)c2)ccc1NS(C)(=O)=O` [Compound I-162], for which the EC50 was less than 1 µM.

As to `Cc1cc(C(F)(F)F)nc(C2CC2)c1Oc1nc(-c2cncc(C#N)c2)ccc1NS(C)(=O)=O` [Compound I-163], the EC50 was less than 1 µM.

In the case of `Cc1nc(C)c(Oc2nc(-c3cncc(Cl)c3)ccc2NS(C)(=O)=O)c(C2CC2)n1` [Compound I-164], the concentration for a half-maximal effect (EC50) was less than 25 µM.

Take `Cc1cc(C(F)(F)F)nc(C2CC2)c1Oc1nc(-c2cncc(C#N)c2)ccc1N=S(C)(C)=O` [Compound I-286]: the EC50 is less than 1 µM.

As to `Cc1cc(C(F)(F)F)nc(C2CC2)c1Oc1nc(-c2cncc(C#N)c2)ccc1S(=N)(=O)C1CC1` (centres unmarked) [Compound I-287], the half-maximal effective concentration (EC50) is not below 25 µM.

For the compound `Cc1cc(C(F)F)nc(C2CC2)c1Oc1nc(-c2cncc(C#N)c2)ccc1S(=O)(=O)NC1CC1` [Compound I-288], the EC50 was less than 1 µM.

As for `CNS(=O)(=O)c1ccc(-c2cncc(C#N)c2)nc1Oc1c(C)cc(C(F)F)nc1C1CC1` [Compound I-289], the concentration giving a half-maximal response (EC50) is less than 1 µM.

Regarding `Cc1cc(C(F)(F)F)nc(C2CC2)c1Oc1nc(-c2cncc(C#N)c2)ccc1S(=O)(=O)N1CCOCC1` [Compound I-290], the EC50 was not below 25 µM.

Regarding `Cc1cc(C(F)(F)F)nc(C2CC2)c1Oc1nc(-c2cncc(C#N)c2)ccc1S(=O)(=O)N(C)C` [Compound I-291], the EC50 was in the range of 1 to 10 µM.

`Cc1nc(C(F)(F)F)nc(C2CC2)c1Oc1nc(-c2cncc(C#N)c2)ccc1S(=O)(=O)NC1CC1` [Compound I-292]: the 50% effective concentration (EC50) is less than 1 µM.

The record behind these values is patent US20250228835A1, “PYRIDINYLOXYPYRIDINES AND RELATED COMPOUNDS AND THEIR USE IN TREATING MEDICAL CONDITIONS” (Rectify Pharmaceuticals, Inc., priority 2024, published 2025).
